From patent publication US20040121307A1, “Early detection of cellular differentiation using optophoresis” (Genoptix, Inc, priority 2002, published 2004)
“And” between values parts separate entries of the source, which are not always exact repeats. Equal values may be shown once.

Experiments:
Assay type in all cases: cell-based
U937 cells [1] = test: Experiment 2: time and concentration dependence of PMA, escape velocity; set-up: escape velocity, Ave.: unit not given here
Description: This experiment was conducted to test the effect of PMA concentration on the escape velocity of U937 cells. PMA concentrations of 10 ng/ml, 1 ng/ml, 100 pg/ml, 10 pg/ml and 1 pg/ml were tested. The control sample received EtOH and not PMA.
The PMA concentration was tested at three timepoints: 1 hour, 3 hours and 5 hours. At each timepoint, 300 μl of cells were removed from each flask. The cells were then spun for 5 minutes at 5000 rpm. The cells were then resuspended in […] PBS/1% BSA and […] of trypan blue.

HL-60 cells [2] = test: Cellular differentiation of HL-60, fast scan time course; conditions: 400 ng/ml PMA, fast scan
Description: (§1) Fast scan analysis was also performed on HL-60 cells that were treated with PMA and DMSO. A time course evaluation of PMA treated HL-60 cells was performed with fast scan data taken at 16 hours, 24 hours, 40 hours, and 72 hours post-treatment with 400 ng/ml PMA. A control sample of HL-60 cells was also tested using EtOH as the vehicle for purposes of comparing the differentiated cells with the undifferentiated HL-60 cells. The PMA-treated and control cells were harvested and trypsinized. The samples were then resuspended in PBS/1% BSA. A set of samples was also obtained and left as pellets at 4° C. for subsequent FACS analysis.
A time course evaluation of DMSO treated HL-60 cells was performed with fast scan data taken at 16 hours, 24 hours, 40 hours, and 70 hours post-treatment with 1% DMSO. A control sample of HL-60 cells was also tested for purposes of comparing the differentiated cells with the undifferentiated HL-60 cells. The DMSO-treated and control cells were then harvested and resuspended in PBS/1% BSA. A set of samples was also obtained and left as pellets at 4° C. for subsequent FACS analysis.

HL-60 cells [3] = test: Cellular differentiation of HL-60, escape velocity
Excerpt: HL-60 is a promyelocytic leukemia cell line that retains the capacity to undergo terminal differentiation and serves as a model system to study myeloid pathways of cellular differentiation. It is known that treatment of HL-60 cells with phorbol 12-myristate 13-acetate (PMA) causes the cells to differentiate into monocytes/macrophages. In addition, it is also known that treatment of HL-60 cells with dimethylsulfoxide (DMSO) causes these same cells to undergo granulocytic differentiation.
Initial tests were performed using HL-60 cells treated with PMA. HL-60 cells were seeded at about 1-3×10^6 cells per well in six well plates. The cells were treated with 200 ng/ml PMA while the control cells were treated with ethanol (EtOH) vehicle for four hours at 37° C. After incubation for four hours the treated cells were washed with PBS and re-fed with growth media. The treated HL-60 cells were then allowed to differentiate for 72 hours in normal growth media. After the 72 hour period, the untreated control cells were collected by centrifugation, washed with PBS and pelleted for resuspension at 1.5×10^6 cells/ml in PBS/1% BSA. Treated cells were trypsinized and collected by centrifugation then washed in PBS and pelleted for resuspension at 1×10^6 cells/ml in PBS/1% BSA. The cells were the subjected to Optophoretic analysis by measuring the escape velocities of the treated and control cells. Table 23 shown below illustrates the measured escape velocities of the undifferentiated and differentiated cells at 72 hours post treatment.

[4] = system: CD11b expression in HL-60 cells; test: FACS CD11b expression profile; conditions: 400 ng/ml PMA
Description: as §1
FIG. 145 illustrates a histogram of the travel distance of the control cells as well as the PMA-treated cells at 16 hours, 24 hours, 40 hours, and 72 hours post-treatment. FIG. 146 illustrates the mean travel distances of the control cells as well as the PMA-treated cells at 16 hours, 24 hours, 40 hours, and 72 hours post-treatment. FIG. 147 illustrates the FACS CD11b expression profile in PMA-treated HL-60 cells as well as the control. CD11b is a known marker of cellular differentiation and is expressed on the surface of differentiating cells. […] The data illustrate that Optophoretic analysis can be used as an assay for the detection and quantification of cellular differentiation. […]

U937 cells [5] = test: Experiment 3: PMA inhibition by bisindolymaleimide, escape velocity; conditions: 10 ng/ml PMA only, four hours
Excerpt: The objective of this experiment was to test the effect of bisindolymaleimide on cells exposed to PMA. Bisindolymaleimide is a Protein Kinase C inhibitor and should block the effect of PMA on U937 cells and their escape velocities. As shown in this and prior experiments, exposure of U937 cells to PMA results in an increase in the escape velocity of the cells. Therefore, it is anticipated that addition of bisindolymaleimide will reduce or eliminate the increase in escape velocity caused by PMA. This has in fact been observed in the data shown below.
Bisindolymaleimide was tested at two concentrations: 200 ng/ml and 50 ng/ml. Samples not treated with bisindolymaleimide received an equivalent amount of the carrier, MeOH, as a control. […] The concentration of PMA tested was 10 ng/ml. Samples not receiving PMA received DMSO.
Once the flasks were prepared, they were incubated at 37° C. 5% CO2 for four hours. At the four hour timepoint, 300 μl of cells were removed from each flask and pelleted at 5000 rpm for 5 minutes. The cells were then resuspended in 6 ml PBS/1% BSA and 60 μl trypan blue.

For `CCCCCCCCCCCCCC(=O)O[C@@H]1[C@@H](C)[C@@]2(O)[C@@H](C=C(CO)C[C@]3(O)C(=O)C(C)=C[C@@H]23)[C@@H]2C(C)(C)[C@]12OC(C)=O` [PMA, phorbol 12 myristate 13-acetate], the “escape velocity, Ave.” value (U937 cells [1]; 10 pg/ml PMA, 1 Hour Activation) was 14.4, the “escape velocity, Ave.” value (U937 cells [1]; 10 pg/ml PMA, 3 Hour Activation) was 14.5 and the “escape velocity, Ave.” value (U937 cells [1]; 10 pg/ml PMA, 5 Hour Activation) was 14.1. For the same molecule, the “escape velocity, Ave.” value (U937 cells [1]; 100 pg/ml PMA, 1 Hour Activation) was 14.4, the “escape velocity, Ave.” value (U937 cells [1]; 100 pg/ml PMA, 3 Hour Activation) was 15.5 and the “escape velocity, Ave.” value (U937 cells [1]; 100 pg/ml PMA, 5 Hour Activation) was 16.1. For the same molecule, the “escape velocity, Ave.” value (U937 cells [1]; 1 ng/ml PMA, 1 Hour Activation) was 14.3, the “escape velocity, Ave.” value (U937 cells [1]; 1 ng/ml PMA, 3 Hour Activation) was 15.1 and the “escape velocity, Ave.” value (U937 cells [1]; 1 ng/ml PMA, 5 Hour Activation) was 16.5. For the same molecule, the “escape velocity, Ave.” value (U937 cells [1]; 10 ng/ml PMA, 1 Hour Activation) was 14.8, the “escape velocity, Ave.” value (U937 cells [1]; 10 ng/ml PMA, 3 Hour Activation) was 15.2 and the “escape velocity, Ave.” value (U937 cells [1]; 10 ng/ml PMA, 5 Hour Activation) was 16.2. The “Optophoretic difference versus control” value (U937 cells [1]; two lowest concentrations, 10 pg/ml and 1 pg/ml PMA) was “showed no Optophoretic difference”, the “time after treatment at which Optophoretic analysis detected cellular differentiation into monocytes/macrophages” value (HL-60 cells [2]) was no more than 16 h and the “escape velocity, Average” value (HL-60 cells [3]; HL-60 + PMA at 72 hours (differentiated), 200 ng/ml PMA for four hours) was 14.0 μm/sec. For the same molecule, the “Escape Velocity, individual cell” value (HL-60 cells [3]; HL-60 + PMA at 72 hours (differentiated), 200 ng/ml PMA for four hours, Cell No. 1 to 20) was 14.0 μm/sec (3×) and 12.5 μm/sec (3×) and 16.5 μm/sec and 14.5 μm/sec (3×) and 13.0 μm/sec (2×) and 13.5 μm/sec (2×) and 15.5 μm/sec (2×) and 15.0 μm/sec (2×) and 16.0 μm/sec and 11.0 μm/sec, the “increase in measured escape velocity as compared to the control cells” value (HL-60 cells [3]; HL-60 + PMA at 72 hours, on average) was “about 2 μm/sec” and the “time after treatment at which a noticeable change in CD11b expression levels was observed” value [4] was “about 40 hours”. It also gave an average escape velocity (U937 cells [5]) of 15.4 μm/sec.
